Entries after “also recorded” stand apart in the source; their conditions may differ. Structures can show the parent of a compound that is named as a salt. Where two headings read alike, the source gives them in different places. Blank lines part the entries; values can stand above or below the compound they belong to.
Key:
[1] = stability studies and metabolite identification in mice and human microsomes; settings: for metabolic stability (in words): mice and human microsomes
[2] = cited from earlier work
[3] = in vitro metabolic stability, human liver microsomes; settings: pH 7.4
5XFAD mice = test: fear conditioning test in 5XFAD mice; format: in vivo, mouse; settings: 5XFAD mice at 8 months, 10 mg/kg ip daily for 5 months, listed as 1 (PDDC)
[4] = cited from earlier work; remark: listed apart in the source

Compound: COc1ccc(-c2c(C)nc3c(N4CC[C@@H](NS(=O)(=O)C5CC5)C4)cc(C)nn23)cc1OC [Compound 66, (R)-N-(1-(3-(3,4-Dimethoxyphenyl)-2,6-dimethylimidazo[1,2-b]pyridazin-8-yl)pyrrolidin-3-yl)cyclopropanesulfonamide]
metabolic stability (in words) [1]: generally stable; also recorded: completely stable

Compound: COc1ccc(-c2c(C)nc3c(N4CC[C@@H](NS(=O)(=O)c5cccs5)C4)cc(C)nn23)cc1OC [Compound 73, (R)-N-(1-(3-(3,4-Dimethoxyphenyl)-2,6-dimethylimidazo[1,2-b]pyridazin-8-yl)pyrrolidin-3-yl)thiophene-2-sulfonamide]
metabolic stability (in words) [1]: generally stable; also recorded: completely stable

Compound: O=c1[nH]c(=S)[nH]c(-c2ccccc2)c1Cc1c(O)ccc2ccccc12 [cambinol]
metabolic stability (in words) [2]: poor metabolic stability

Compound: COc1ccc(-c2c(C)nc3c(N4CC[C@@H](NC(=O)Oc5ccccc5)C4)cc(C)nn23)cc1OC [Compound 1, Phenyl(R)-(1-(3-(3,4-Dimethoxyphenyl)-2,6-dimethylimidazo[1,2-b]pyridazin-8-yl)pyrrolidin-3-yl)carbamate]
remaining at 1 h, 1 µM [3]: 103 ± 14%
metabolite identification (MET-ID) ([1]; human and mouse liver microsomes, Figure S1): O-demethylated metabolite
metabolic stability (in words) [1]: generally stable
contextual fear memory (freezing, day 2) (5XFAD mice): performed like WT controls

Compound: COc1cc(-c2nc(-c3cccs3)c(-c3ccccc3)[nH]2)cc(OC)c1O [DPTIP]
oral bioavailability (in words) [4]: not orally bioavailable
brain penetration (in words) ([4]; vs PDDC): poor brain penetration

The next lines start with the values.

metabolic stability (in words) [1]: metabolically unstable
Compound: COc1ccc(-c2c(C)nc3c(N4CCCC4)cc(C)nn23)cc1OC [Compound 76c, 3-(3,4-Dimethoxyphenyl)-2,6-dimethyl-8-(pyrrolidin-1-yl)imidazo[1,2-b]pyridazine]

metabolic stability (in words) [1]: generally stable
Compound: COc1ccc(-c2c(C)nc3c(N4CC[C@@H](NC(=O)C(F)(F)F)C4)cc(C)nn23)cc1OC [Compound 52, (R)-N-(1-(3-(3,4-Dimethoxyphenyl)-2,6-dimethylimidazo[1,2-b]pyridazin-8-yl)pyrrolidin-3-yl)-2,2,2-trifluoroacetamide]

metabolic stability (in words) [1]: generally stable
Compound: CCCCCC(=O)N[C@@H]1CCN(c2cc(C)nn3c(-c4ccc(OC)c(OC)c4)c(C)nc23)C1 [Compound 53, (R)-N-(1-(3-(3,4-Dimethoxyphenyl)-2,6-dimethylimidazo[1,2-b]pyridazin-8-yl)pyrrolidin-3-yl)hexanamide Hydrochloride]

metabolic stability (in words) [1]: generally stable
Compound: COc1ccc(-c2c(C)nc3c(N4CC[C@@H](NC(=O)Nc5ccccc5)C4)cc(C)nn23)cc1OC [Compound 59, (R)-1-(1-(3-(3,4-Dimethoxyphenyl)-2,6-dimethylimidazo[1,2-b]pyridazin-8-yl)pyrrolidin-3-yl)-3-phenylurea]

metabolic stability (in words) [1]: reasonable metabolic stability
Compound: CC(=O)N[C@@H]1CCN(c2cc(C)nn3c(-c4ccc(OC(F)(F)F)cc4)c(C)nc23)C1 [Compound 47, (R)-N-(1-(2,6-Dimethyl-3-(4-(trifluoromethoxy)-phenyl)imidazo[1,2-b]pyridazin-8-yl)pyrrolidin-3-yl)acetamide]

— article PMC8025741 (Journal of medicinal chemistry, 2020)
